According to US9260710B2, “Photocleavable linker” (City of Hope, priority 2012, dated 2016):

Columns and labels:
[1] = tested on: GFP-LC8 trap transfected Cos1/Cos7 cells; experiment: Organelle dispersion and microtubule array in cells expressing the LC8 trap; assay type: cell-based; details: expression of the trap alone, no AP20187
Excerpt: In vivo effect of Dynein LC and IC Traps. As tests for LC function, we evaluated the effects of the traps on early endosome, lysosome, and Golgi distribution, as well as mitotic progression. First, we fused green fluorescent protein (GFP) to the N-terminus of both FKBP-traps to identify transfected cells. Next, we transfected Cos1, Cos7, or HeLa cells with either trap or a GFP-FKBP control and labeled endosomes, lysosomes and Golgi with EEA1, LAMP2 and GM130 markers, respectively (FIGS. 12A-12C). […] The percentage of cells expressing the GFPLC8 or GFP-TcTex1 trap with dispersed endosomes was 14.7±1.5% and 13.3±1.5%, respectively, as compared to 11.7±3.5% and 10.3±3.5% for non-transfected cells and cells that expressed a GFP-FKBP control, respectively. […] After 8 h of treatment with AP20187, we observed greater than 50% dispersion of the three organelle types for each trap.
To ensure the AP20187 concentration was not limiting, we followed the LC8-trap-induced dispersion of lysosomes as a function of AP20187 concentration after 8 h. […] For the TcTex1-trap, we observed efficient endosome, lysosome and Golgi dispersion at AP20187 concentrations of 1 μM or greater.
Kinetic Analysis Separates Dynein Functions. A major purpose for developing these traps is to provide immediate inhibition of protein function and follow the cellular response from this perturbation to gain new insight. Thus, we monitored the fraction of cells with dispersed organelles as a function of time. After induction of dimerization by AP20187, effects on both early endosome and lysosome distribution were detectable at 10 min, and leveled off at ˜2 h (FIGS. 14A-14B). […] The most rapid effect was observed on lysosomes in cells expressing the LC8 trap. In striking contrast, Golgi dispersal using either trap occurred over a much longer time-course, requiring 8 h after induction of dimerization to reach similar levels of dispersion as for endosomes and lysosomes. Twenty-four hours after addition of AP20187, the percentage of cells with dispersed Golgi reached levels greater than 85%.

[2] = target: T1, LC8 (Homo sapiens, UniProt P63167); experiment: Defective mitotic spindle morphology; assay type: cell-based; details: transfected cells
T1 construct: we monitored the distribution of Golgi in cells subjected to LC8 RNAi; endogenous in cells
T1 sequence (P63167 whole entry): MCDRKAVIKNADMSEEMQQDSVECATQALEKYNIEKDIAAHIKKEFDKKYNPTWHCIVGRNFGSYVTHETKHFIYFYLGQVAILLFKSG
Experimental: As a test for effects on cytoplasmic dynein functions that are distinct from vesicular transport, we monitored mitotic behavior in cells expressing either the LC8- or TcTex1-traps. We observed little effect on either mitotic index or the fraction of mitotic cells at discrete mitotic stages with either trap (data not shown). […] Finally, similar studies were carried out using the IC trap. As before, we observed little or no change in the dispersion of endosomes and Golgi apparatus before AP20187 treatment. Induction of dimerization through the addition of AP20187 (1 μM) produced immediate changes in both organelles. After 4 h, 81+4% of cells contained dispersed endosomes and 68+3% of cells contained dispersed Golgi. […] The precise reason for this difference is not clear; however, currently, we attribute this to a change in the cytoskeleton, but this must still be verified. We are also in the process of measuring the effect of sequestering the dynein IC on mitotic behavior.

[3] = tested on: TcTex1; experiment: Trap specificity by native PAGE, TcTex1; assay type: binding; details: with or without AP20187 treatment
Excerpt: In addition, there is no evidence that LC8 can bind proteins bearing a TcTex1 sequence or vice versa (e.g., LC8 binds to BimEL, Pak1, nNOS, etc.; TcTex1 binds to Doc2α, PTHR receptor, etc.50).

Row | defective mitotic spindle morphology [2] | binding to TcTex1 [3] | Substance | percentage of cells with dispersed endosomes [1] [%]
1 | – | – | GFPLC8: green fluorescent protein fused to the N-terminus of the FKBP LC8-trap | 14.7±1.5
2 | 20+2% | does not bind | LC8-trap: LC8 binding region of the dynein IC (residues 125-137, rat IC2C) fused to the C-terminus of FKBP | –
